Key:
[1] = biological target: T1, Amine oxidase [flavin-containing] A (Homo sapiens, UniProt P21397); experiment: Inhibition of human recombinant MAO-A using kynuramine as substrate incubated for 20 mins by fluorescence spectrophotometric analysis
T1 sequence (P21397 whole entry): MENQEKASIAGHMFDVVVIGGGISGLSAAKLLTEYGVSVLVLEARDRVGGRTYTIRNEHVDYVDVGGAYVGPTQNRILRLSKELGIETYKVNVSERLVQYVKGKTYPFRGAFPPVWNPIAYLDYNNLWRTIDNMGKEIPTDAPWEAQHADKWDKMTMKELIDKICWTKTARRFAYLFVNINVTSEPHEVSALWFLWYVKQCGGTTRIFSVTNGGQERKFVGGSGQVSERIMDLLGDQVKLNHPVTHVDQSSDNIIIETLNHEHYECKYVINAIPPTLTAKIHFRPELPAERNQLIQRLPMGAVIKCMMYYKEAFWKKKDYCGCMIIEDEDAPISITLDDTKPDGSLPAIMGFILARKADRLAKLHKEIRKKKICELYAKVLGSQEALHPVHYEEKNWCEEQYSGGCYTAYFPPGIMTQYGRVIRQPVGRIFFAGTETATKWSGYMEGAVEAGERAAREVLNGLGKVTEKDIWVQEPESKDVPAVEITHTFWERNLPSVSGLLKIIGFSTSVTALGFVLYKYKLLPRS

[2] = biological target: T2, Amine oxidase [flavin-containing] B (Homo sapiens, UniProt P27338); experiment: Inhibition of human recombinant MAO-B using kynuramine as substrate incubated for 20 mins by fluorescence spectrophotometric analysis
T2 sequence (P27338 whole entry): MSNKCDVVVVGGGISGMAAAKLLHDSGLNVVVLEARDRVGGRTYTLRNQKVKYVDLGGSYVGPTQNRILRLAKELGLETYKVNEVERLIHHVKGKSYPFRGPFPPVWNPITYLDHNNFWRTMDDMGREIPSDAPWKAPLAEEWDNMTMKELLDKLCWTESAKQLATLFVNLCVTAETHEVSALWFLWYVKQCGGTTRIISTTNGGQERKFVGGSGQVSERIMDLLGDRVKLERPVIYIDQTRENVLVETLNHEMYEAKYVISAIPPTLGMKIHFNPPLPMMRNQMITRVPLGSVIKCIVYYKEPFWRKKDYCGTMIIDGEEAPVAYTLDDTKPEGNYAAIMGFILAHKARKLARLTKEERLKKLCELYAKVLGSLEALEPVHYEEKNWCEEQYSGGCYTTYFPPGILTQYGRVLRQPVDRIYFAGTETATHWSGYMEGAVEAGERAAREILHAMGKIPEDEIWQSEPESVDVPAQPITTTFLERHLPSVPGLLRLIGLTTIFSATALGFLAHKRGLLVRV

Homo sapiens = species: Homo sapiens; experiment: Selectivity index, ratio of IC50 for human recombinant MAO-B to IC50 for human recombinant MAO-A

Row | Compound | IC50 [1] | IC50 [2] | Ratio IC50 (Homo sapiens)
1 | N#Cc1cc2cc(-c3ccccc3)n(O)c2cc1C#N | 6.92 µM | 10.3 µM | 1.5
2 | COc1ccc(-c2c(C=O)c3cc(C#N)c(C#N)cc3n2OC)cc1 | 0.147 µM | > 100 µM | > 680
3 | COc1ccc(-c2c(CO)c3cc(C#N)c(C#N)cc3n2OC)cc1 | 1.13 µM | > 100 µM | > 88
4 | O=C1NC(=O)c2cc3c(cc21)cc(-c1ccccc1)n3O | > 100 µM | 83.1 µM | < 0.83
5 | COn1c(-c2ccccc2)c(CO)c2cc(C#N)c(C#N)cc21 | 4.99 µM | > 100 µM | > 20
6 | COc1ccc(-c2cc3cc(C(=O)O)c(C(=O)O)cc3n2O)cc1 | > 100 µM | > 100 µM | –
7 | COn1c(-c2cccs2)cc2cc3c(cc21)C(=O)NC3=O | 6.7 µM | 3.75 µM | 0.56
8 | O=C1NC(=O)c2cc3c(cc21)cc(-c1cccs1)n3O | 6.35 µM | > 100 µM | > 16
9 | COc1ccc(C(=O)Cc2cc3c(cc2[N+](=O)[O-])C(=O)NC3=O)cc1 | 0.661 µM | 1.21 µM | 1.8
10 | COc1ccc(C(=O)Cc2cc3c(cc2[N+](=O)[O-])C(=O)N(Cc2ccccc2)C3=O)cc1 | 5.51 µM | > 100 µM | > 18
11 | CC(=O)On1c(-c2cccs2)cc2cc(C#N)c(C#N)cc21 | 2.08 µM | 1.94 µM | 0.93
12 | COc1ccc(-c2cc3cc(C#N)c(C#N)cc3n2O)cc1 | 1.84 µM | 1.79 µM | 0.97
13 | O=C1NC(=O)c2cc3c(Cl)c(-c4ccccc4)[nH]c3cc21 | 0.25 µM | > 100 µM | > 400
14 | Cc1ccc(-c2cc3cc4c(cc3n2O)C(=O)NC4=O)cc1 | 1.16 µM | 8.09 µM | 7
15 | COn1c(-c2ccccc2)c(C=O)c2cc(C#N)c(C#N)cc21 | 0.522 µM | > 100 µM | > 192
16 | COn1c(-c2ccc(C)cc2)cc2cc3c(cc21)C(=O)NC3=O | 1.75 µM | 0.581 µM | 0.33
17 | COn1c(-c2ccc(C)cc2)c(CO)c2cc(C#N)c(C#N)cc21 | 5.12 µM | > 100 µM | > 20
18 | Cc1ccc(-c2cc3cc(C#N)c(C#N)cc3n2O)cc1 | 1.14 µM | 0.821 µM | 0.72
19 | COn1c(-c2ccccc2)cc2cc3c(cc21)C(=O)N(C)C3=O | 1.24 µM | > 100 µM | > 81
20 | COn1c(-c2ccc(C)cc2)c(C=O)c2cc(C#N)c(C#N)cc21 | 0.405 µM | 74.8 µM | 185
21 | COC(=O)c1cc2cc(-c3ccc(OC)cc3)n(OC)c2cc1C(=O)OC | 19 µM | > 100 µM | > 5.3
22 | N#Cc1cc2cc(-c3cccs3)n(O)c2cc1C#N | 11.1 µM | > 100 µM | > 9
23 | COn1c(-c2ccccc2)c(Br)c2cc(C#N)c(C#N)cc21 | > 100 µM | > 100 µM | –
24 | COn1c(-c2ccc(C)cc2)c(Br)c2cc(C#N)c(C#N)cc21 | > 100 µM | 7.46 µM | < 0.075

Next, values leading:

Row | IC50 [1] | IC50 [2] | Ratio IC50 (Homo sapiens) | Compound
25 | > 100 µM | > 100 µM | – | O=C(Cc1cc(C(=O)O)c(C(=O)O)cc1[N+](=O)[O-])c1ccccc1
26 | 6.12 µM | > 100 µM | > 16 | O=C(Cc1cc2c(cc1[N+](=O)[O-])C(=O)NC2=O)c1cccs1
27 | > 100 µM | > 100 µM | – | O=C(O)c1cc2cc(-c3cccs3)n(O)c2cc1C(=O)O
28 | 2.11 µM | 0.923 µM | 0.44 | Cc1ccc(C(=O)Cc2cc3c(cc2[N+](=O)[O-])C(=O)NC3=O)cc1
29 | > 100 µM | > 100 µM | – | O=C(Cc1cc2c(cc1[N+](=O)[O-])C(=O)N(Cc1ccccc1)C2=O)c1cccs1
30 | > 100 µM | > 100 µM | – | O=C(Cc1cc(C(=O)O)c(C(=O)O)cc1[N+](=O)[O-])c1cccs1
31 | 23.3 µM | 56.2 µM | 2.4 | O=C(O)c1cc2cc(-c3ccccc3)n(O)c2cc1C(=O)O
32 | > 100 µM | > 100 µM | – | COc1ccc(C(=O)Cc2cc(C(=O)O)c(C(=O)O)cc2[N+](=O)[O-])cc1
33 | 5.38 µM | 6.79 µM | 1.3 | O=C(Cc1cc2c(cc1[N+](=O)[O-])C(=O)NC2=O)c1ccccc1
34 | > 100 µM | > 100 µM | – | Cc1ccc(C(=O)Cc2cc(C(=O)O)c(C(=O)O)cc2[N+](=O)[O-])cc1
35 | > 100 µM | > 100 µM | – | Cc1ccc(-c2cc3cc(C(=O)O)c(C(=O)O)cc3n2O)cc1
